According to ChEMBL document CHEMBL1201862, “PubChem BioAssay data set” (2004):
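Step 1: Grow cells in 96-well plates. Step 2: Expose to compound for 48 hours at 5 concentrations. Step 3: Interpolate endpoints linearly; if unreached, use highest concentration. GI50 = concentration required for 50% inhibition of growth.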 Calls of active or inactive are those of the source. Rule as the data show it: active = GI50 up to about 1.1 µM and inactive = higher.

Assays:
Test in all cases: NCI-60 cell line screen, 48 h
Malme-3M = test system: Malme-3M
MOLT-4 = test system: MOLT-4
NCI-H460 = test system: NCI-H460
NCI-H226 = test system: NCI-H226
SF-268 = test system: SF-268
SK-MEL-28 = test system: SK-MEL-28
786-0 = test system: 786-0
HOP-62 = test system: HOP-62
A549 = test system: A549
HCT-15 = test system: HCT-15
UO-31 = test system: UO-31
KM12 = test system: KM12
SK-MEL-5 = test system: SK-MEL-5
A498 = test system: A498
ACHN = test system: ACHN
COLO 205 = test system: COLO 205
RXF 393 = test system: RXF 393
SK-OV-3 = test system: SK-OV-3

SMILES | GI50 (Malme-3M) | GI50 (MOLT-4) | GI50 (NCI-H460) | GI50 (NCI-H226) | GI50 (SF-268) | GI50 (SK-MEL-28) | GI50 (786-0) | GI50 (HOP-62) | GI50 (A549) | GI50 (HCT-15) [µM] | GI50 (UO-31) | GI50 (KM12) | GI50 (SK-MEL-5) | GI50 (A498) | GI50 (ACHN) | GI50 (COLO 205) | GI50 (RXF 393) | GI50 (SK-OV-3)
O=C(Nc1cccc(Cl)c1)Nn1cnnc1 | > 100 µM (inactive) | > 100 µM (inactive) | > 100 µM (inactive) | > 100 µM (inactive) | > 100 µM (inactive) | > 100 µM (inactive) | > 100 µM (inactive) | > 100 µM (inactive) | > 100 µM (inactive) | > 100 | > 100 µM (inactive) | > 100 µM (inactive) | > 100 µM (inactive) | > 100 µM (inactive) | > 100 µM (inactive) | > 100 µM (inactive) | > 100 µM (inactive) | > 100 µM (inactive)
N=C(N)N/N=C(/c1ccccc1)c1ccc(O)cc1O | 22.6 µM (inactive) |  | 27.4 µM (inactive) | 29.9 µM (inactive) | 32.6 µM (inactive) | 72.6 µM (inactive) | 29.2 µM (inactive) | 32 µM (inactive) | 38.1 µM (inactive) | 39.4 | 46.1 µM (inactive) | 30.5 µM (inactive) | 25.8 µM (inactive) | 21.9 µM (inactive) | 45.9 µM (inactive) | 17.5 µM (inactive) | 45 µM (inactive) | 33.4 µM (inactive)
Cc1cc(C)c2c(SCc3ccc(Cl)cc3Cl)nc(N)nc2n1 | 32 µM (inactive) |  | 21.7 µM (inactive) | > 100 µM (inactive) | > 100 µM (inactive) | > 100 µM (inactive) | 17.1 µM (inactive) | 37.4 µM (inactive) | 36.3 µM (inactive) | > 100 | 23.5 µM (inactive) | > 100 µM (inactive) | > 100 µM (inactive) | > 100 µM (inactive) | 57.5 µM (inactive) | 34.8 µM (inactive) | > 100 µM (inactive) | > 100 µM (inactive)
Cc1csc2nc(-c3ccc(Cl)c([N+](=O)[O-])c3)c(/C=N/NC(=N)N)n12 | 1.9 µM (inactive) |  | 1.78 µM (inactive) | 1.67 µM (inactive) | 1.71 µM (inactive) | 1.82 µM (inactive) | 1.49 µM (inactive) | 1.61 µM (inactive) | 1.83 µM (inactive) | 1.66 | 1.12 µM (inactive) | 1.75 µM (inactive) | 1.52 µM (inactive) | 1.51 µM (inactive) | 1.6 µM (inactive) | 1.15 µM (inactive) | 1.63 µM (inactive) | 1.84 µM (inactive)
Cn1c(=O)c2ccccc2c2ccccc21 | 46 µM (inactive) |  | 29.3 µM (inactive) | 32.3 µM (inactive) | 40.6 µM (inactive) | 85.5 µM (inactive) | 45.6 µM (inactive) | 65.8 µM (inactive) | 53.8 µM (inactive) | 40 | 42.4 µM (inactive) | 72.9 µM (inactive) | 30.3 µM (inactive) | 30.8 µM (inactive) | 33 µM (inactive) | 34.3 µM (inactive) | 40.6 µM (inactive) | 27.5 µM (inactive)
O=C(/C=C/c1ccsc1)c1ccsc1 | 26.4 µM (inactive) | 17.6 µM (inactive) | 23.7 µM (inactive) | 17 µM (inactive) | 44.8 µM (inactive) | 37.1 µM (inactive) | 21.4 µM (inactive) | > 100 µM (inactive) | 38.2 µM (inactive) | 19.1 | 15.4 µM (inactive) | 18.9 µM (inactive) | 19.2 µM (inactive) | 37.5 µM (inactive) | 20.4 µM (inactive) | 22.4 µM (inactive) |  | > 100 µM (inactive)
C=CCOCn1ccc(=O)[nH]c1=O | 94.4 µM (inactive) | > 100 µM (inactive) | > 100 µM (inactive) | > 100 µM (inactive) | > 100 µM (inactive) | > 100 µM (inactive) | > 100 µM (inactive) | > 100 µM (inactive) | > 100 µM (inactive) | > 100 | > 100 µM (inactive) | > 100 µM (inactive) | > 100 µM (inactive) | > 100 µM (inactive) | > 100 µM (inactive) | > 100 µM (inactive) |  | > 100 µM (inactive)
COc1ccc(/C=C/c2cnnc3ccccc23)cc1OC | > 10 µM (inactive) | > 10 µM (inactive) | > 10 µM (inactive) | > 10 µM (inactive) | > 10 µM (inactive) | > 10 µM (inactive) | > 10 µM (inactive) | > 10 µM (inactive) | > 10 µM (inactive) | > 10 | 0.0374 µM (active) | > 10 µM (inactive) | > 10 µM (inactive) | > 10 µM (inactive) | > 10 µM (inactive) | > 10 µM (inactive) | > 10 µM (inactive) | > 10 µM (inactive)
